According to US4868299A, “Antibacterially active pyrido-benzothiazine derivatives with long-term action” (Mediolanum Farmaceutici Srl, priority 1986, dated 1989):
Values after ≈ are worked out from the molar mass of the structure shown. Like-named read-outs stand apart in the source and are kept apart here.

How the values were obtained:
Experiment in all cases: in-vitro antibacterial activity, MIC by agar dilution (multipoint inoculator)
Assay type in all cases: cell-based
Pseudomonas 22437 = details: 18 hours at 37° C; for MIC: read-out: Minimum Inhibiting Concentration (MIC)
Protocol: (§1) The antibacterial activity of the compounds according to the invention was determined "in vitro" on pathogenic strains of recent clinical isolation by testing agar dilutions using a multipoint inoculator (Denley Techn. Ltd., England).
(§2) The culture medium used is isosensitest agar (Oxoid), in a quantity of 20 ml in a Petri capsule. The compounds to be tested were dissolved at various dilutions and incorporated in agar.
(§3) The bacterial inoculum, originating from an overnight broth and containing 10^5 colony-forming units per point, was inoculated by a multipoint inoculator. The bacterial growth was evaluated after 18 hours of incubation at 37° C.
(§4) For comparison purposes, the results relative to compound (XIII) and to nalidixic acid are also reported.

Citrobacter 118 = details: for MIC: read-out: Minimum Inhibiting Concentration (MIC)
Protocol: as §1, §2, §3, §4

Citrobacter 120 = details: for MIC: read-out: Minimum Inhibiting Concentration (MIC)
Protocol: as §1, §2, §3, §4

Escherichia 963 = details: for MIC: read-out: Minimum Inhibiting Concentration (MIC)
Protocol: as §1, §2, §3, §4

Enterobacter 2653 = details: for MIC: read-out: Minimum Inhibiting Concentration (MIC)
Protocol: as §1, §2, §3, §4

Proteus 966 = details: for MIC: read-out: Minimum Inhibiting Concentration (MIC)
Protocol: as §1, §2, §3, §4

Staphylococcus 7 = details: for MIC: read-out: Minimum Inhibiting Concentration (MIC)
Protocol: as §1, §2, §3, §4

Enterobacter 041 = details: for MIC: read-out: Minimum Inhibiting Concentration (MIC)
Protocol: as §1, §2, §3, §4

Pseudomonas 19 = details: for MIC: read-out: Minimum Inhibiting Concentration (MIC)
Protocol: as §1, §2, §3, §4

Proteus 25 = details: for MIC: read-out: Minimum Inhibiting Concentration (MIC)
Protocol: as §1, §2, §3, §4

Staphylococcus 29 = details: for MIC: read-out: Minimum Inhibiting Concentration (MIC)
Protocol: as §1, §2, §3, §4

Serratia 9 = details: for MIC: read-out: Minimum Inhibiting Concentration (MIC)
Protocol: as §1, §2, §3, §4

Escherichia 15 = details: 18 hours at 37° C, read-out: Minimum Inhibiting Concentration (MIC)
Protocol: as §1, §2, §3, §4

Klebsiella 4 = details: for MIC: read-out: Minimum Inhibiting Concentration (MIC)
Protocol: as §1, §2, §3, §4

Serratia 10 = details: 18 hours at 37° C, read-out: Minimum Inhibiting Concentration (MIC)
Protocol: as §1, §2, §3, §4

[1] = Citrobacter 118, 18 hours at 37° C
[2] = Citrobacter 120, 18 hours at 37° C
[3] = Escherichia 963, 18 hours at 37° C
[4] = Enterobacter 2653, 18 hours at 37° C
[5] = Staphylococcus 7, 18 hours at 37° C
[6] = Enterobacter 041, 18 hours at 37° C
[7] = Pseudomonas 19, 18 hours at 37° C
[8] = Staphylococcus 29, 18 hours at 37° C
[9] = Klebsiella 4, 18 hours at 37° C

`CCn1cc(C(=O)O)c(=O)c2ccc(C)nc21` [NALIDIXIC ACID, nalidixic acid, reference compound] was tested, and the MIC (Pseudomonas 22437) was > 25 µg/mL, the MIC (Citrobacter 118; Citrobacter, 118, 18 h) was 12.5 µg/mL (≈ 53.8 µM) and the MIC (Citrobacter 120; Citrobacter, 120, 18 h) was 12.5 µg/mL (≈ 53.8 µM). For the same compound, the MIC (Escherichia 963; Escherichia, 963, 18 h) was > 25 µg/mL, the MIC (Enterobacter 2653; Enterobacter, 2653, 18 h) was 1.56 µg/mL (≈ 6.72 µM) and the MIC (Proteus 966; 18 h) was > 25 µg/mL. The MIC (Staphylococcus 7; Staphylococcus, 7, 18 h) was > 25 µg/mL, the MIC (Enterobacter 041; Enterobacter, 041, 18 h) was 3.12 µg/mL (≈ 13.4 µM) and the MIC (Pseudomonas 19; Pseudomonas, 19, 18 h) was > 25 µg/mL. The MIC (Proteus 25; 18 h) was 12.5 µg/mL (≈ 53.8 µM), the MIC (Staphylococcus 29; Staphylococcus, 29, 18 h) was > 25 µg/mL and the MIC (Serratia 9; Serratia, 9, 18 h) was > 25 µg/mL. The MIC (Escherichia 15) was 3.12 µg/mL (≈ 13.4 µM) and the MIC (Klebsiella 4; Klebsiella, 4, 18 h) was 3.12 µg/mL (≈ 13.4 µM).

With `CC1Cn2cc(C(=O)O)c(=O)c3cc(F)c(Cl)c(c32)S1` (stereo not drawn) [reference compound] the MIC (Pseudomonas 22437) was > 32 µg/mL, the MIC (Citrobacter 118; [1]) was 1 µg/mL (≈ 3.19 µM) and the MIC (Citrobacter 120; [2]) was > 32 µg/mL. The MIC (Escherichia 963; [3]) was 16 µg/mL (≈ 51 µM), the MIC (Enterobacter 2653; [4]) was 0.12 µg/mL (≈ 0.382 µM) and the MIC (Proteus 966; Proteus 966, 18 hours at 37° C) was > 32 µg/mL. It also gave an MIC (Serratia 10) of 0.25 µg/mL (≈ 0.797 µM), an MIC (Staphylococcus 7; [5]) of 0.12 µg/mL (≈ 0.382 µM) and an MIC (Enterobacter 041; [6]) of 0.12 µg/mL (≈ 0.382 µM). The MIC (Pseudomonas 19; [7]) was > 32 µg/mL, the MIC (Proteus 25; Proteus 25, 18 hours at 37° C) was > 32 µg/mL and the MIC (Staphylococcus 29; [8]) was 0.12 µg/mL (≈ 0.382 µM). For the same compound, the MIC (Serratia 9; Serratia 9, 18 hours at 37° C) was > 32 µg/mL, the MIC (Escherichia 15) was 0.25 µg/mL (≈ 0.797 µM) and the MIC (Klebsiella 4; [9]) was 0.12 µg/mL (≈ 0.382 µM).

For “ethyl 9-fluoro-10-chloro-2-methyl-7-oxo-2,3-dihydro-7H-pyrido[1,2,3-de][1,4]benzothiazine-1-sulphoxide-6-carboxylate [(II)]”, the “Minimum Inhibiting Concentration (MIC)” value (Pseudomonas 22437) was 16 µg/mL, the “Minimum Inhibiting Concentration (MIC)” value (Citrobacter 118; [1]) was 0.5 µg/mL and the “Minimum Inhibiting Concentration (MIC)” value (Citrobacter 120; [2]) was 0.5 µg/mL. For the same compound, the “Minimum Inhibiting Concentration (MIC)” value (Escherichia 963; [3]) was 2 µg/mL, the “Minimum Inhibiting Concentration (MIC)” value (Enterobacter 2653; [4]) was 0.25 µg/mL and the “Minimum Inhibiting Concentration (MIC)” value (Proteus 966; Proteus 966, 18 hours at 37° C) was 4 µg/mL. For the same compound, the “Minimum Inhibiting Concentration (MIC)” value (Staphylococcus 7; [5]) was 1 µg/mL, the “Minimum Inhibiting Concentration (MIC)” value (Enterobacter 041; [6]) was 0.12 µg/mL and the “Minimum Inhibiting Concentration (MIC)” value (Pseudomonas 19; [7]) was 16 µg/mL. For the same compound, the “Minimum Inhibiting Concentration (MIC)” value (Proteus 25; Proteus 25, 18 hours at 37° C) was 4 µg/mL, the “Minimum Inhibiting Concentration (MIC)” value (Staphylococcus 29; [8]) was 1 µg/mL and the “Minimum Inhibiting Concentration (MIC)” value (Serratia 9; Serratia 9, 18 hours at 37° C) was 8 µg/mL. For the same compound, the “Minimum Inhibiting Concentration (MIC)” value (Klebsiella 4; [9]) was 0.25 µg/mL.
